Tested on: keloid fibroblasts
Experiment: Cell proliferation assay of patient-derived fibroblasts with or without steroid
Assay type: cell-based, human
Experimental: As depicted in the flow diagram of FIG. 3, in some embodiments, the method of the invention involves culturing small (˜2 mm) tissue pieces using standard cell culture media and conditions to allow the outgrowth of cells, which takes 1-2 weeks. Depending upon the desired cell type or cell types, non-invasive sampling methods can be utilized, such an oral rinse. The outgrown cells are collected by trypsinization and re-seeded in fresh wells. Upon attachment, the cells are treated in triplicate with or without 10 micromolar Triamcinolone Acetonide (TA), a potent synthetic steroid used widely in the clinic, or varying concentrations of any other test steroid. The viable cells are harvested 4-7 days post-treatment (when the untreated cells start approaching confluency) and counted to determine the effects of the steroid on cell proliferation. The inventors have tested the method of the invention using fibroblast cells derived from 3 normal human skin biopsies as well as 20 surgically excised keloids from patients and exposing them to TA, as well as hydrocortisone, another commonly used steroid in the clinic. The results were remarkably similar to those observed for the response of keloid patients to steroids in the clinic, with 52% of the samples being sensitive (responsive) to the TA treatment, while 39% were non-responsive and 9% were hyperproliferative in TA (which predicts a worsening of condition upon steroid therapy). In summary, our screening test described herein can be used to determine patients' responses to steroids in less than 4 weeks, following which responsive patients can undergo steroid therapy, while others can avoid the potentially harmful steroids altogether and seek other therapies. Culture of keloid derived primary fibroblast cells. Surgically excised keloid and normal skin explants were obtained from patients under Florida State University IRB (2016.19175 and 2017.22173). The explants were cut into small pieces, digested with trypsin, washed with and cultured in DMEM containing 10% fetal bovine serum and Antibiotic/Antimycotic solution maintained at 37° C. and 5% CO2. Outgrowth of only primary dermal fibroblasts occurred under our culture conditions and these were recovered by trypsinization for use in experiments at low passage. The keloid fibroblasts are morphologically identical to commercially obtained normal primary Human Dermal Fibroblasts (HDF) (Cell Applications, Cat.#106-05a) used in our controls. Cell proliferation assays. To determine relative cell survival following radiation or steroid treatments, 7,500 fibroblasts were seeded per well in triplicate in 12-well plates. Following attachment, the cells were treated with steroids or irradiated using a X-Rad 320 irradiator. Surviving fibroblasts were counted on a Coulter counter 7 days post-treatment.

[1] = fibroblasts from 3 normal human skin biopsies and 20 surgically excised keloids, 10 micromolar TA, cells counted 4-7 days post-treatment
[2] = keloid explants and fibroblasts, 10 μM TA for a week

Compound: CC1(C)O[C@@H]2C[C@H]3[C@@H]4CCC5=CC(=O)C=C[C@]5(C)[C@@]4(F)[C@@H](O)C[C@]3(C)[C@]2(C(=O)CO)O1 [TA, Triamcinolone Acetonide]
- samples hyperproliferative in TA [1]: 9%
- samples non-responsive to TA [1]: 39%
- samples sensitive (responsive) to the TA treatment [1]: 52%
- samples with hyperproliferation [2]: 10%
- samples with modest reduction in proliferation (steroid sensitive) [2]: 50%
- samples with no significant effects on proliferation (steroid insensitive) [2]: 40%
